Source: patent US20230075925A1, “NON-PERIPHERAL QUATERNARY AMMONIUM-MODIFIED ZINC PHTHALOCYANINE AND PREPARATION METHOD AND USE THEREOF” (FUZHOU UNIVERSITY, priority 2020, published 2023)

What was measured:
[1] = test system: melanoma cells B16-F10 tumors (proximal and distal); assay: PDT / anti-PD-L1 combination therapy in bilateral B16-F10 tumor-bearing mouse model (tumor inhibition rate); assay type: in vivo; conditions: for tumor inhibition rate on proximal tumors (illuminated tumors): PDT group (phthalocyanine+illumination), 100 μL of 200 μM, 685 nm 15 mW/cm^2 5 min, 14 days
Procedure: A bilateral tumor-bearing mouse model of melanoma cells B16-F10 (proximal and distal) was established. During PDT, the proximal referred to an illuminated side, and the distal referred to a non-illuminated side. The distribution and metabolism of photosensitizers in the tumor-bearing mouse were investigated by a small animal fluorescence imager and a tissue extraction method, and PDT was conducted under optimal conditions. The following 5 groups of experiments were set up, with 5 mice in each group: a PBS control group; an anti-PD-L1 antibody treatment group; a simple phthalocyanine (no illumination) treatment group; a phthalocyanine+illumination treatment group, namely a PDT group; and a phthalocyanine+illumination+anti-PD-L1 antibody treatment group, namely a combination therapy group. The anti-PD-L1 antibody was purchased from BioX cell.
In the combination therapy group, the PDT group and the simple photosensitizer group, 100 μL of a phthalocyanine compound (at a concentration of 200 μM, diluted with 0.5% CEL) was administered to each mouse. The combination therapy group and the PDT group were irradiated by a laser with a wavelength of 685 nm (at an irradiation power of 15 mW/cm^2 for 5 min) on the right tumor (proximal tumor) 8 h to 12 h after the administration. The combination therapy group was administered at 50 μg of PD-L1 antibody/mouse immediately after laser treatment, and the antibody group was administered 50 μg of PD-L1 antibody/mouse at the same time. One treatment was given on the first and fourth day separately.
From the first treatment, a body weight and a tumor volume of all mice were measured every other day, and a tumor size was calculated according to a formula: tumor volume=tumor length×width×height×π/6; after 14 consecutive days of observation, a tumor inhibition rate of each experimental group was calculated.

[2] = test system: human cervical cancer cells Hela; assay: Dark toxicity and photodynamic activity on Hela cells (MTT cell viability); assay type: cell-based; conditions: 4 μM
Procedure: The non-peripheral quaternary ammonium-modified zinc phthalocyanine prepared in Example 1 was dissolved in a 1% castor oil derivative (Cremophor EL, wt %) aqueous solution to prepare a 0.1 mM photosensitizer. The dark toxicity and photodynamic activity of the photosensitizer were tested on human cervical cancer cells Hela.
0.1 mM or 0.2 mM of the photosensitizer was diluted into a cell medium to prepare a cell medium containing zinc phthalocyanine complexes at different concentrations. The cancer cells were cultured in the medium containing different concentrations of zinc phthalocyanine complexes for 2 h; after staining, the medium was discarded; and after washing with PBS, the cells were added into a new medium (without zinc phthalocyanine complexes). Illumination experiment group: the cells were irradiated with red light for 30 min at a power of irradiated light at 15 mW cm^−2 using red light with a wavelength greater than 600 nm as an excitation light source; non-illumination control group: the cells were placed in the dark for 30 min. After illumination or non-illumination, a cell viability was examined by MTT. The specific experimental steps referred to “Bioorganic & Medicinal Chemistry Letters, 2006, 16, 2450-2453”. […]

B16-F10 cells = assay: Tumor recurrence (immune memory) after re-injection of B16-F10 cells following combination therapy; assay type: in vivo, ICR mouse; conditions: combination with PD-L1 antibody; 1×10^6 B16-F10 cells injected on 7th day after therapy, observed 21 d, 5 mice
Excerpt: More importantly, the mice treated with a combination of the zinc phthalocyanine in Example 1 and the PD-L1 antibody have an immune memory effect, which can effectively prevent tumor recurrence. On a 7th day after the combination therapy of zinc phthalocyanine in Example 1 and PD-L1 antibody, 1×10^6 B16-F10 cells were subcutaneously injected into a left ventral side of each ICR mouse (5 mice in each group), and the mice were continued to be observed for 21 d. […] However, the mice in remaining control groups are observed to have obvious melanoma regrowth, and no ability is observed to prevent tumor recurrence.

| Molecule | tumor inhibition rate on proximal tumors (illuminated tumors) [1] [%] | cancer cells killed under red light irradiation ([2]; red light 15 mW cm^−2 for 30 min) [%] | dark toxicity (killing and growth inhibition of Hela cells without irradiation) ([2]; without irradiation, 2 h incubation) | tumor inhibition rate on distal tumors (unilluminated tumors) ([1]; combination therapy group: phthalocyanine+illumination+anti-PD-L1 antibody (50 μg/mouse)) [%] | effect on in situ tumors ([1]; combined with immune checkpoint blocker PD-L1 antibody) | effective rate in preventing recurrence (B16-F10 cells) [%] |
| --- | --- | --- | --- | --- | --- | --- |
| 1-[4-(aminoethyl)phenoxy] zinc phthalocyanine [Comparative Example 1, reference compound] | 69 |  |  |  |  |  |
| C[N+](C)(C)CCc1ccc(Oc2cccc3c4nc5nc(nc6nc(nc7[n-]c(nc([n-]4)c23)c2ccccc72)-c2ccccc2-6)-c2ccccc2-5)cc1.[I-].[Zn+2] [Example 1, 1-[4-(N,N,N-trimethyl-2-aminoethyl)phenoxy] zinc phthalocyanine iodide] | 51 | 100 | no dark toxicity | 90 | completely remove in situ tumors | 80 |
